Like-named read-outs stand apart in the source and are kept apart here.
Assays:
MDA-MB-231 cells [1] = test: Cell cycle analysis by flow cytometry; format: cell-based, human; settings: 24 h, vehicle 31.52 ± 2.67%
Method: Cell cycle analysis was carried out as previously described. […] They were washed thrice with ice-cold phosphate-buffered saline (PBS) and fixed with 75% ethanol at −20 °C overnight. The cells were then washed, incubated with 5 μl of RNase (0.25 mg/ml) at 37 °C for 30 min, pelleted, resuspended in propidium iodide (PI, 50 μg/ml), and incubated in the dark at room temperature for 15 min. Cell cycle analysis was analysed using a flow cytometer (FACSCanto II, BD, San Jose, CA).

MDA-MB-231 cells [2] = test: Detection of apoptosis (annexin V/PI flow cytometry); format: cell-based, human; settings: 24 h
Method: Flow cytometry was performed using PI and FITC-labelled annexin V (BD Pharmingen, CA, USA) staining according to the manufacturer’s protocol. […] After incubation at room temperature in the dark for 15 min, 400 μl of binding buffer (1×) was added. The samples were analysed within 1 h by flow cytometry (FACSCanto II, BD, San Jose, CA).

[3] = tested on: Snail expression in MDA-MB-231 cells; test: PCR analysis of Snail expression; format: cell-based, human; settings: 24 h
Method: (§1) Total RNA from MDA-MB-231 cells was isolated using TRIzol (Life Technologies, USA). RNA samples were quantified using a NanoDrop 3300 spectrophotometer (Thermo Scientific, NanoDrop Products, Wilmington, DE, USA). Synthesis of cDNA was performed using a RevertAid First Strand cDNA Synthesis kit per manufacturer’s protocols (Thermo Scientific, USA). The reaction mixtures were heated at 95 °C for 10 min, followed by 30 cycles at 94 °C for 30 s, 58 °C for 30 s, 72 °C for 20 s, and a final extension at 72 °C for 5 min. Subsequently, PCR products were electrophoresed in a 1.5% agarose gel and scanned using a gel/fluorescence image analysis system. GAPDH was selected as a loading control to standardize the amount of cDNA from each sample.

[4] = tested on: vimentin mRNA in MDA-MB-231 cells; test: PCR analysis of vimentin mRNA; format: cell-based, human; settings: 24 h
Method: as §1

[5] = tested on: MDA-MB-231 xenografted tumours; test: Mouse xenograft model, anti-tumour effect in vivo; parameters: species or system BALB/c nude mice
Method: Female BALB/c nude mice (18 ± 2 g) were purchased from Institute of Laboratory Animal Sciences, Peking Union Medical College (Beijing, China). […] The tumour length and width were measured using callipers and the tumour volume was calculated twice weekly. The body weight of mice was determined at least twice weekly during the study period.

[6] = In vivo pharmacokinetics in rat plasma (UPLC-MS/MS, NCA); parameters: species or system Sprague-Dawley (SD) rats; settings: intraperitoneal; for Cmax / MRT last / Tmax / half-life / AUC(0-t): male, Sprague-Dawley, plasma, ip; for MRT last: read-out: MRT0-t
Method: Male Sprague-Dawley (SD) rats (250 ± 50 g body weight) were purchased from Institute of Laboratory Animal Sciences, Peking Union Medical College (Beijing, China). Rats were housed in a light-controlled room at 25 ± 2 °C and 55 ± 5% relative humidity, at the Animal Center of Tianjin Medical University Cancer Institute and Hospital (Tianjin, China). Animals received a standard diet and water ad libitum. […] At 0, 10, 20, 30, 40 min, 1, 2, 3, 4, 6, 8, 10, 12, and 24 h post injection, blood samples were collected into heparinized glass tubes by direct venipuncture. Plasma was prepared from the blood by centrifugation at 13,000 rpm for 10 min at 4 °C and stored at −80 °C until further analysis.
An ACQUITY™ ultra-performance liquid chromatography system connected to a Xevo triple quadrupole mass spectrometry system (Waters, MA, USA) equipped with an electrospray ionization (ESI) source was used in this study. Aliquots (50 μl) of plasma was vortex-mixed with methanol (400 μl) containing diazepam (internal standard, 200 ng/ml concentration) for 2 min and then centrifuged at 13,000 rpm at 4 °C for 10 min. Then, 400 μl of supernatant was transferred to a clean centrifuge tube and dried with an N2 gas stream. Samples were reconstituted with 100 μl methanol/H2O (50/50, v/v). The injection volume of the assay was 5 μl. The mobile phase (MP) was composed of MPA (acetonitrile) and MPB (5 mM ammonium formate with 0.1% formic acid in water), and the flow rate was maintained at 0.3 ml/min. […] A switching valve directed the flow eluting between 1.0–2.5 min into a mass spectrometer, and the remainder to a waste container. BHX and diazepam were ionized with ESI in the positive mode and fragmented with collision gas for analysis using multiple reaction monitoring (MRM). The ESI source settings for the analysis were as follows: 350 °C gas temperature; 650 L/h desolvation; 50 L/h cone; 2.5 kV capillary voltage. […] The data acquisition and processing were done using MassLynx Mass Spectrometry software, version 4.1 (Waters, MA, USA). The dwell time was 400 ms for all ion transitions monitored.

MGC803 = tested on: MGC803; parameters: method as in PMID 24098916; settings: cited from earlier work

O=C(NCc1ccc(O)cc1)C1C(c2ccccc2)C(c2ccccc2)=NN1c1ccccc1 (centres unmarked) [BHX]
percentage of cells in the G0/G1 phase (MDA-MB-231 cells [1]; 10 μM): 54.49 ± 1.93% | percentage of cells in the G0/G1 phase (MDA-MB-231 cells [1]; 20 μM): 61.50 ± 2.85% | early apoptotic cells vs vehicle (MDA-MB-231 cells [2]): increased the percentage of early apoptotic cells | reduction of Snail expression ([3]; 5 μM): 7.03% | reduction of Snail expression ([3]; 10 μM): 15.88% | reduction of Snail expression ([3]; 20 μM): 27.14% | reduction of vimentin mRNA levels ([4]; 5 μM): 4.89% | reduction of vimentin mRNA levels ([4]; 10 μM): 26.27% | reduction of vimentin mRNA levels ([4]; 20 μM): 40.08% | average tumour volume ([5]; 100 mg/kg for 21 days, vehicle 1179 ± 128 mm^3): 754 ± 96 mm^3 | tumour size compared to control group ([5]; 100, 200 mg/kg, daily intraperitoneal, 21 days, p < 0.01): significant decrease in tumour size | body weight of treated mice ([5]; 21 days treatment, p > 0.05): no significant loss of body weight | bioluminescent intensity of tumours ([5]; 21 days, dose not stated, control 8.90 ± 0.74 × 10^7): 6.13 ± 0.52 × 10^7 p/sec/cm^2/sr | CL ([6]; 50 μg/kg): 0.467 ± 0.1 mL/min/kg | Vd ([6]; 50 μg/kg): 0.192 ± 0.047 L/kg | t1/2 ([6]; 50 μg/kg): 4.82 ± 0.93 h | CL ([6]; 100 μg/kg): 0.717 ± 0.12 mL/min/kg | Vd ([6]; 100 μg/kg): 0.253 ± 0.062 L/kg | Cmax ([6]; 50 ug/kg): 325 ± 55.1 ng/mL | MRT last ([6]; 50 ug/kg, 50 μg/kg): 6.8 ± 1.25 h | Tmax ([6]; 50 ug/kg, 50 μg/kg, read-out: Tmax): 5.37 ± 1.16 h | half-life ([6]; 50 ug/kg, 50 μg/kg, read-out: elimination half-life in plasma (converted)): 4.82 ± 0.93 h | AUC(0-t) ([6]; 50 ug/kg, first AUC0-t line): 1770 ± 325 ng·h/mL | AUC(0-t) ([6]; 50 ug/kg, second AUC0-t line): 1820 ± 287 ng·h/mL | Cmax ([6]; 100 ug/kg): 405 ± 87.5 ng/mL | MRT last ([6]; 100 ug/kg, 100 μg/kg): 6.36 ± 1.32 h | Tmax ([6]; 100 ug/kg, 100 μg/kg, read-out: Tmax): 5.62 ± 1.38 h | half-life ([6]; 100 ug/kg, 100 μg/kg, read-out: t1/2 (converted)): 4.11 ± 0.81 h | AUC(0-t) ([6]; 100 ug/kg, first AUC0-t line): 2300 ± 412 ng·h/mL | AUC(0-t) ([6]; 100 ug/kg, second AUC0-t line): 2350 ± 303 ng·h/mL | Tmax ([6]; Fig. 7c, read-out: time to peak plasma level post administration): ~6 h | cytotoxic effects (MGC803): exhibits cytotoxic effects

Reference: article PMC5567253 (Scientific Reports, 2017)
